The values below are quoted from earlier work in EP3332769A1, “SOLID ORAL PHARMACEUTICAL COMPOSITIONS OF TICAGRELOR” (Sanovel Ilac Sanayi ve Ticaret A.S., priority 2016, dated 2018).

The aqueous solubility is the concentration that dissolves in the medium under given conditions.

For the series the following is noted: in water.

Converted amounts (≈) assume the structure as drawn.

`CCCSc1nc(N[C@@H]2C[C@H]2c2ccc(F)c(F)c2)c2nnn([C@@H]3C[C@H](OCCO)[C@@H](O)[C@H]3O)c2n1` [Ticagrelor, (1 S,2S,3R,5S)-3-[7-[(1 R,2S)-2-(3,4-Difluorophenyl)cyclopropylamino]-5-(propylthio)-3H-[1,2,3]triazolo[4,5-d]pyrimidin-3-yl] -5-(2-hydroxyethoxy) cyclopentane-1,2-diol]: the aqueous solubility is recorded as 10 µg/mL (≈ 19.1 µM).
